Several values for one entry are separate records, joined by “and”; a condition that tells them apart may be missing. Equal entries are not always repeated. Inconclusive results and toxic doses are left out.

The experiment concerns L1210 leukemia ip in BDF1 mice, survival T/C. The experiment in a line: NCI In Vivo Anticancer Drug Screen. Data for tumor model L1210 Leukemia (intraperitoneal) in B6D2F1 (BDF1) mice. To be noted: endpoint: mean survival time, higher = longer survival. In short, it runs like this:
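Transplantable tumor model; survival measured in treated vs vehicle control mice. Value = treated/control.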

Where [1] appears, read: dose: 25.0 mg/kg/injection, schedule: Q01DX009 (ip), vehicle: Klucel (hydroxypropylcellulose) (HPC).
Where [2] appears, read: dose: 50.0 mg/kg/injection, schedule: Q01DX009 (ip), vehicle: Klucel (hydroxypropylcellulose) (HPC).
Where [3] appears, read: dose: 100.0 mg/kg/injection, schedule: Q04DX002 (ip), vehicle: Klucel (hydroxypropylcellulose) (HPC).
[4] abbreviates: dose: 200.0 mg/kg/injection, schedule: Q04DX002 (ip), vehicle: Klucel (hydroxypropylcellulose) (HPC).
The mark [5] stands for this setting: dose: 400.0 mg/kg/injection, schedule: Q04DX002 (ip), vehicle: Klucel (hydroxypropylcellulose) (HPC).
The mark [6] stands for this setting: dose: 100.0 mg/kg/injection, schedule: Q01DX001 (ip), vehicle: carboxymethylcellulose (CMC).
The mark [7] stands for this setting: dose: 200.0 mg/kg/injection, schedule: Q01DX001 (ip), vehicle: carboxymethylcellulose (CMC).
Where [8] appears, read: dose: 100.0 mg/kg/injection, schedule: Q04DX003 (ip), vehicle: Klucel (hydroxypropylcellulose) (HPC).

`CO[C@@H]1CCCCCC[C@H]1[Hg][Cl]`: the T/C reads like this: (dose: 2.0 mg/kg/injection, schedule: Q01DX015 (ip), vehicle: carboxymethylcellulose (CMC)) 104 % of control; (dose: 4.0 mg/kg/injection, schedule: Q01DX015 (ip), vehicle: carboxymethylcellulose (CMC)) 95 % of control; (dose: 5.0 mg/kg/injection, schedule: Q01DX001 (ip), vehicle: carboxymethylcellulose (CMC)) 108 % of control; (dose: 8.0 mg/kg/injection, schedule: Q01DX015 (ip), vehicle: carboxymethylcellulose (CMC)) 101 % of control; (dose: 10.0 mg/kg/injection, schedule: Q01DX001 (ip), vehicle: carboxymethylcellulose (CMC)) 112 % of control; (dose: 16.0 mg/kg/injection, schedule: Q01DX015 (ip), vehicle: carboxymethylcellulose (CMC)) 93 % of control. The T/C is 114 % of control (dose: 20.0 mg/kg/injection, schedule: Q01DX001 (ip), vehicle: carboxymethylcellulose (CMC)) and 108 % of control (dose: 40.0 mg/kg/injection, schedule: Q01DX001 (ip), vehicle: carboxymethylcellulose (CMC)).

Take `C=C1CC(c2ccc(S(=O)(=O)N(CC)CC)cc2)OC1=O` (centres undefined): the T/C (dose: 25.0 mg/kg/injection, schedule: Q01DX005 (ip), vehicle: Klucel (hydroxypropylcellulose) (HPC)) is 89 % of control; the T/C under setting [1] is 98 % of control; the T/C (dose: 25.0 mg/kg/injection, schedule: Q04DX002 (ip), vehicle: Klucel (hydroxypropylcellulose) (HPC)) is 96 % of control; the T/C (dose: 50.0 mg/kg/injection, schedule: Q01DX005 (ip), vehicle: Klucel (hydroxypropylcellulose) (HPC)) was 92 % of control; the T/C under setting [2] was 94 % of control; the T/C (dose: 50.0 mg/kg/injection, schedule: Q04DX002 (ip), vehicle: Klucel (hydroxypropylcellulose) (HPC)) is 96 % of control. Moreover, the T/C is 96 % of control (dose: 100.0 mg/kg/injection, schedule: Q01DX005 (ip), vehicle: Klucel (hydroxypropylcellulose) (HPC)); 98 % of control (dose: 100.0 mg/kg/injection, schedule: Q01DX009 (ip), vehicle: Klucel (hydroxypropylcellulose) (HPC)); 96 % of control under setting [3].

In the case of `CC(C)OC(=S)SCC(=O)c1ccc(C(F)(F)F)cc1`, the T/C runs as follows: under setting [3], 96 % of control; under setting [4], 92 % of control; under setting [5], 92 % of control.

Consider `COc1cc2c(cc1OC)C(Cc1ccc(OC(=O)O)cc1)=NCC2`, for which the T/C under setting [6] is 102 % of control and the T/C under setting [7] was 102 % of control.

As for `COc1nc(N)c(C#N)cc1C#N`, the T/C (dose: 12.5 mg/kg/injection, schedule: Q01DX009 (ip), vehicle: Klucel (hydroxypropylcellulose) (HPC)) is 96 % of control; the T/C under setting [1] is 102 % of control; the T/C under setting [2] was 93 % of control; the T/C under setting [8] was 92 % of control.

For the molecule `C=C(C)C(=O)OC1CC23OC2CC(COC3O)C2OC2C2OC(=O)C(=C)C12` (centres undefined), the T/C is, setting by setting: (dose: 6.25 mg/kg/injection, schedule: Q01DX009 (ip), vehicle: acetone) 98 % of control; (dose: 12.5 mg/kg/injection, schedule: Q01DX001 (ip), vehicle: acetone) 106 % of control; (dose: 12.5 mg/kg/injection, schedule: Q01DX009 (ip), vehicle: acetone) 104 % of control; (dose: 12.5 mg/kg/injection, schedule: Q04DX003 (ip), vehicle: acetone) 90 % of control; (dose: 25.0 mg/kg/injection, schedule: Q01DX001 (ip), vehicle: acetone) 106 % of control; (dose: 25.0 mg/kg/injection, schedule: Q04DX003 (ip), vehicle: acetone) 104 % of control. Moreover, the T/C (dose: 50.0 mg/kg/injection, schedule: Q01DX001 (ip), vehicle: acetone) was 109 % of control.

On to `CC1=C(C)C(C)(Cl)C1(C)Cl` (centres undefined), for which the T/C (dose: 75.0 mg/kg/injection, schedule: Q01DX001 (ip), vehicle: acetone) was 108 % of control and the T/C (dose: 150.0 mg/kg/injection, schedule: Q01DX001 (ip), vehicle: acetone) was 95 % of control.

On to `Cc1ccccc1NC(=O)Oc1ccccc1-c1ccccc1`, for which the T/C is 103 % of control under setting [3], 118 % of control under setting [4] and 118 % of control under setting [5].

Turning to `O=C(c1ccccc1)C(Oc1ccccc1)c1ccccc1` (centres undefined), the T/C is 111 % of control (dose: 100.0 mg/kg/injection, schedule: Q04DX002 (ip), vehicle: other); 107 % of control (dose: 200.0 mg/kg/injection, schedule: Q04DX002 (ip), vehicle: other); 100 % of control (dose: 400.0 mg/kg/injection, schedule: Q04DX002 (ip), vehicle: other).

`NC(=O)N1C(=O)CC(Sc2ccc(Cl)cc2)C1=O` (centres undefined): the T/C by setting is: under setting [6], 97 % of control; under setting [7], 100 % of control; (dose: 400.0 mg/kg/injection, schedule: Q01DX001 (ip), vehicle: carboxymethylcellulose (CMC)) 105 % of control.

On to `COC(=O)C(Br)c1ccc([N+](=O)[O-])cc1` (centres undefined), for which the T/C runs as follows: (dose: 12.5 mg/kg/injection, schedule: Q01DX009 (ip), vehicle: saline with Tween-80) 101 % of control; (dose: 12.5 mg/kg/injection, schedule: Q04DX003 (ip), vehicle: saline) 98 % of control; (dose: 25.0 mg/kg/injection, schedule: Q01DX009 (ip), vehicle: saline with Tween-80) 104 % of control; (dose: 25.0 mg/kg/injection, schedule: Q04DX003 (ip), vehicle: saline) 101 % of control; (dose: 50.0 mg/kg/injection, schedule: Q04DX003 (ip), vehicle: saline) 93 % of control.

In the case of `CCCCCCP(C)(=O)CCCCCC`, the T/C (dose: 100.0 mg/kg/injection, schedule: Q01DX001 (ip), vehicle: saline with Tween-80) is 99 % of control.

In the case of `Clc1nccnc1C(Cl)(Cl)Cl`, the T/C by setting is: (dose: 50.0 mg/kg/injection, schedule: Q01DX009 (ip), vehicle: other) 92 % of control; (dose: 100.0 mg/kg/injection, schedule: Q01DX009 (ip), vehicle: other) 95 % of control.

Turning to `S=C(SSSSC(=S)N1CCCCC1)N1CCCCC1`, the T/C is, setting by setting: (dose: 50.0 mg/kg/injection, schedule: Q04DX003 (ip), vehicle: Klucel (hydroxypropylcellulose) (HPC)) 97 % of control; under setting [8], 101 % of control; (dose: 200.0 mg/kg/injection, schedule: Q04DX003 (ip), vehicle: Klucel (hydroxypropylcellulose) (HPC)) 92 % of control; (dose: 400.0 mg/kg/injection, schedule: Q04DX003 (ip), vehicle: Klucel (hydroxypropylcellulose) (HPC)) 92 % of control.

As to `COC1C(NC(=O)N(CCCl)N=O)C(OC(C)=O)OC(COC(C)=O)C1OC(C)=O` (centres undefined), the T/C (dose: 1.8 mg/kg/injection, schedule: Q01DX001 (ip), vehicle: saline with Tween-80) is 118 % of control; the T/C (dose: 2.6 mg/kg/injection, schedule: Q01DX001 (ip), vehicle: saline with Tween-80) was 181 % of control; the T/C (dose: 4.0 mg/kg/injection, schedule: Q01DX001 (ip), vehicle: saline with Tween-80) is 154 % of control; the T/C (dose: 6.0 mg/kg/injection, schedule: Q01DX001 (ip), vehicle: saline with Tween-80) is 259 % of control [middle of 4 runs]; the T/C (dose: 9.0 mg/kg/injection, schedule: Q01DX001 (ip), vehicle: saline with Tween-80) is 283 % of control and 162 % of control; the T/C (dose: 13.0 mg/kg/injection, schedule: Q01DX001 (ip), vehicle: saline with Tween-80) is 333 % of control and 232 % of control. Also, the T/C is, setting by setting: (dose: 20.0 mg/kg/injection, schedule: Q01DX001 (ip), vehicle: saline with Tween-80) 155 % of control and 154 % of control; (dose: 30.0 mg/kg/injection, schedule: Q01DX001 (ip), vehicle: saline with Tween-80) 86 % of control.

As to `CC(C)C(N)(CCCN(C)C)c1cccc2ccccc12` (centres undefined), where the note is “dose: 100.0 mg/kg/injection, schedule: Q04DX002 (ip), vehicle: saline with Tween-80”, the T/C is 98 % of control.

With `N#CC1C(=O)NC(=O)C(C#N)C12CCCC(C(F)(F)F)C2` (centres undefined), the T/C by setting is: (dose: 50.0 mg/kg/injection, schedule: Q01DX001 (ip), vehicle: saline) 104 % of control; (dose: 100.0 mg/kg/injection, schedule: Q01DX001 (ip), vehicle: saline) 98 % of control; (dose: 200.0 mg/kg/injection, schedule: Q01DX001 (ip), vehicle: saline) 106 % of control; (dose: 400.0 mg/kg/injection, schedule: Q01DX001 (ip), vehicle: saline) 98 % of control.

For the origin of these results see PubChem BioAssay AID248 (DTP/NCI, 2004).
